Source: patent US20130150399A1, “INHIBITORS OF THE UNFOLDED PROTEIN RESPONSE AND METHODS FOR THEIR USE” (The Board of Trustees of the Leland Stanford Junior …, priority 2006, published 2013)

Columns and labels:
XBP1-luciferase reporter = assay: XBP-luciferase reporter high throughput screen / IRE IC50 (tunicamycin + thapsigargin induced); assay type: cell-based, human; conditions: Assay IRE IC50; Conc 20 uM
Procedure: Specifically, HT1080 fibrosarcoma cells stably transfected with the unspliced XBP-1-luciferase reporter construct (3000/well) were plated onto a solid white 384 well microplate with a multidrop dispenser (40 μL per well). The plates were then placed into an automated incubator. After 24 hours of growth, a mixture of tunicamycin (1 μg/ml) and thapsigargin (100 nM) inducers were added, and candidate compounds were then added to the plates. After 24 hours, luciferase reagent (10 μl) was added to each well and the plates were read in a Molecular Devices Analyst GT (0.2 second read per well).
As described above in Example 2, HT1080 fibrosarcoma cells stably expressing the XBP-luciferase reporter were plated in a 384 well microplate (4000 cells/well). After 24 hours, cells were treated with a mixture of tunicamycin (4 μg/ml) and thapsigargin (0.4 μM), followed by the addition of one compound per well (10 μM). We screened a total of 66,000 diverse molecules obtained from Specs, Chembridge and ChemRX. Twenty-four hours post-induction, BriteGlo luciferase substrate (10 μl) was added to each well and the signal intensity determined in a plate reader (0.2 s read per well). […] We retested 431 compounds from the initial screen, and selected 58 compounds for additional analysis, including calculation of IC50 values and inhibition of a CMV-luciferase reporter.
Compounds of the screening library with structural similarity to compound 9389 (see Table 1) have been identified and in some cases further assayed for inhibitory activity. Compounds listed with “IC50” values were assayed secondarily after initially being identified in the high throughput screen. Each value represents a separate calculation of reporter inhibition based upon the high throughput robotic screening platform. The actual IC50 values are calculated and represent an estimate of the potency of each compound. This assay is not considered to be accurate below a concentration of 10 nM. Compounds classified with “mild” activity inhibited the XBP1-luciferase reporter by 10-30%. Compounds classified with “moderate” activity inhibited the XBP1-luciferase reporter by 30-75%. Compounds classified with “potent” activity inhibited the XBP1-luciferase reporter by 75-100%. Compounds classified with “undetected” activity inhibited the XBP1-luciferase reporter by less than 10% under the defined conditions.

phospho-JNK1 = assay: Western blot of phospho-JNK1 under ER stress, HT1080 cells; assay type: cell-based, human; conditions: irestatins 2.5 μM, 2 hour preincubation; Tm 4 μg/ml, 1.5 hrs
Procedure: Cells (2×10^6) were cultured in 10-cm dishes, collected using a cell scraper at 4° C., and lysed by addition of 150 μl cell lysis buffer [50 mM Tris pH 7.4, 150 mM NaCl, 10% glycerol, 0.5% Triton X-100. 0.5% NP-40, 2 mM Na3VO4, 20 mM beta-glycerophosphate, 10 mM NaF, 1 mM DTT, 1 mM PMSF). Lysates were centrifuged for 5 min at 10,000×g, and proteins (˜40 μg) were resolved by SDS-PAGE followed by semi-dry transfer to nitrocellulose membranes. Membranes were blocked in TBS-5% milk supplemented with 0.1% Tween-20. The blots were then probed overnight with relevant antibodies, washed, and incubated for 2 hours with species-specific secondary antibodies conjugated to horseradish peroxidase. After washing in block solution, immunoreactive material was detected by enhanced chemiluminescence (SuperSignal West Dura Extended, Pierce, Inc., Rockville, Ill.).
HT1080 cells were exposed to DMSO vehicle (lane 1), irestatin 9389 (2.5 μM; lane 2) for 16 hours or Tm (5 μg/ml; lane 3) for 8 hours. Following treatments, cells were harvested, lysed, and analyzed by immunoblotting using anti-Grp78 antibody (top) or anti-actin (bottom) as a loading control. […] Cell lysates were analyzed by Western immunoblotting using anti-IRE1α (bottom) or anti-phospho-IRE1α antibodies (top). […] Lysates were analyzed by Western blot using antisera specific for phospho-JNK1 (top) or total JNK1 (bottom). […]

**Q.** Cc1csc(NC(=O)CSc2nc3c(c(C(F)(F)F)c2C#N)CCC3)n1 [Compound 9389] was tested. Which “% Inh” value (XBP1-luciferase reporter) did it give?
**A.** Its value is 100.3%.

**Q.** And the “phosphorylation of JNK1 during Tm-induced ER stress” value (phospho-JNK1)?
**A.** The value was “failed to block the phosphorylation of JNK1”.
